Patent publication US20060142397A1, “Use of a pparalpha agonist and metormin for decreasing the serum triglycerides” (priority 2002, published 2006)
Like-named read-outs stand apart in the source and are kept apart here. Marks after values point to notes of the source that are not given here.

Key:
ob/ob mice = settings: for Serum triglycerides T0 + 10: after 10 days of treatment once a day, 100 mg/kg of each drug; for Serum triglycerides T0 + 10 / Serum triglycerides T0: mean ± sem, n=10; for Serum triglycerides T0: beginning of study (T0, baseline), groups later treated once a day with 100 mg/kg of each drug
Description: Studies were designed to evaluate the effects of fenofibrate, a PPARα agonist, and metformin as a combination therapy, on triglycerides level in ob/ob mice.
Male homozygous C57BL/Ks/Ola/Hsd/lep ob/ob mice were stabilized for 2 weeks in the animal facilities in a temperature-, humidity- and light-controlled room (21-23° C., 12-12 h light-dark cycle). […] After acclimatization, they were randomized into groups of 10 based on body weight, as follows:
Met 100=mice treated once a day with metformin, 100 mg/kg
Feno 100=mice treated once a day with fenofibrate, 100 mg/kg
Feno100-Met100=mice treated once a day with fenofibrate, 100 mg/kg and metformin, 100 mg/kg.
Serum triglycerides (expressed in g/l) were measured at the beginning and the end of the study for each group.
Statistics: All data were subjected to covariance analysis followed by Tukey test.

db/db mice = settings: for Triglycerides % var. T0/T15: 14 days gavage; for Triglycerides T0: T0 (baseline); for Triglycerides T0 / Triglycerides T15: mean ± SEM; for Triglycerides T15: T15 after 14 days gavage
Description: Studies were designed to evaluate the effects of fenofibrate, a PPARα agonist, and metformin as a combination therapy, on triglycerides level in db/db mice.
Male 11/12 weeks old […] J Rj-db (db/db) mice (Janvier, France) were housed in a temperature (19.5-24.5° C.), relative humidity (40-70%) and 12-12 h light-dark cycle (light 7:00 a.m. to 7:00 p.m.)-controlled room, with ad libitum access to filtered (0.22 μm) tap-water and irradiated pelleted laboratory chow (ref. A04, U.A.R., France) throughout the study. They were housed 5 per cage and a 21-day acclimatization period was observed.
The mice were treated during 14 consecutive days (T1 to T14), with morning and afternoon gavages with the various treatments as described below.
At T15, the mice were weighed and blood samples collected without anticoagulant by retro-orbital puncture under CO2/O2 anesthesia.
Triglycerides were measured at T0 and T15 using the multi-parametric analyzer.
Veh/Veh=Vehicle in morning/Vehicle in the afternoon
A300/Veh=metformin, 300 mg/kg in the morning/Vehicle in the afternoon
B100/B100=fenofibrate, 100 mg/kg in the morning/fenofibrate, 100 […]
A300B100/B100=metformin, 300 mg/kg in the morning, and fenofibrate, 100 mg/kg in the morning/fenofibrate, 100 mg/kg in the afternoon
A100/Veh=metformin, 100 mg/kg in the morning/Vehicle in the afternoon
B30/B30=fenofibrate, 30 mg/kg in the morning/fenofibrate, 30 mg/kg in the afternoon
A100B30/B30=metformin, 100 mg/kg in the morning, and fenofibrate, 30 mg/kg […]/fenofibrate, 30 mg/kg in the afternoon

Zucker rats = settings: obese Zucker rats, 30 days, fenofibrate 30 mg/kg p.o. once daily and/or metformin 150 mg/kg p.o. twice daily; for Body weight gain: mean ± SEM, n=8
Description: Studies were designed to evaluate the effects of fenofibrate, a PPARα agonist, and metformin as a combination therapy, on body weight in Zucker rats.
Male homozygous Zucker rats of 9 to 11 weeks of age and their lean controls were randomised into groups of 8, based on body weight and fasting plasma insulin levels.
The experimental groups were: • Lean rats, untreated; • Obese rats, treated with the vehicle p.o., twice daily • Obese rats, treated with Fenofibrate, 30 mg/kg, p.o., once daily • Obese rats, treated with Metformin, 150 mg/kg, p.o., twice daily • Obese rats, treated with Fenofibrate, 30 mg/kg, p.o., once daily and metformin, 150 mg/kg, p.o., twice daily.
Body weight was recorded every day during 30 days.

[1] = metformin 100 mg/kg morning and/or fenofibrate 30 mg/kg twice daily
[2] = metformin 300 mg/kg morning and/or fenofibrate 100 mg/kg morning and afternoon
[3] = high-dose groups: metformin 300 mg/kg morning and/or fenofibrate 100 mg/kg morning and afternoon
[4] = low-dose groups: metformin 100 mg/kg morning and/or fenofibrate 30 mg/kg twice daily

SMILES | Serum triglycerides T0 + 10 (ob/ob mice) [g/L] | Serum triglycerides T0 (ob/ob mice) [g/L] | Triglycerides % var. T0/T15 (db/db mice; [1]) | Triglycerides % var. T0/T15 (db/db mice; [2]) | Triglycerides T0 (db/db mice; [3]) [g/L] | Triglycerides T0 (db/db mice; [4]) [g/L] | Triglycerides T15 (db/db mice; [1]) | Triglycerides T15 (db/db mice; [2]) [g/L] | Body weight gain (% of change vs vehicle treated group) (Zucker rats) [%] | Body weight gain (Zucker rats) [g] | Effect on triglycerides level (in words) (ob/ob mice; 10 days, 100 mg/kg once a day) | Effect on triglycerides level (in words) (db/db mice; 14 days treatment)
CC(C)OC(=O)C(C)(C)Oc1ccc(C(=O)c2ccc(Cl)cc2)cc1 [Fenofibrate, fenofibrate] | 0.69 ± 0.03 | 0.72 ± 0.06 | −42.3* % | −53.5* % | 1.89 ± 0.13 | 1.72 ± 0.12 | 0.97 ± 0.08 g/L | 0.85 ± 0.08 | −26 | 52.0 ± 5.8 | – | –
CN(C)C(=N)N=C(N)N [Metformin, metformin] | 0.74 ± 0.04 | 0.68 ± 0.03 | 7.3° % | −3.3° % | 1.81 ± 0.14 | 1.68 ± 0.12 | 1.79 ± 0.16° g/l | 1.67 ± 0.06 | −5 | 67.2 ± 4.0 | no effects | no reduction in triglycerides level
